biological target: T1, soluble guanylate cyclase (sGC) (Homo sapiens (Human), UniProt Q02108+Q02153); assay: sGC-HEK-cGMP assay, new protocol with DETA-NONOate, LC/MS detection (Example 2C); assay type: cell-based; conditions: HEK293 cells, 10 μM DETA-NONOate, LC/MS detection; concentration eliciting 50% of high control response (30 μM I-329); read-out: Absolute EC50 (uM) - binned
T1 sequence (Q02153 whole entry): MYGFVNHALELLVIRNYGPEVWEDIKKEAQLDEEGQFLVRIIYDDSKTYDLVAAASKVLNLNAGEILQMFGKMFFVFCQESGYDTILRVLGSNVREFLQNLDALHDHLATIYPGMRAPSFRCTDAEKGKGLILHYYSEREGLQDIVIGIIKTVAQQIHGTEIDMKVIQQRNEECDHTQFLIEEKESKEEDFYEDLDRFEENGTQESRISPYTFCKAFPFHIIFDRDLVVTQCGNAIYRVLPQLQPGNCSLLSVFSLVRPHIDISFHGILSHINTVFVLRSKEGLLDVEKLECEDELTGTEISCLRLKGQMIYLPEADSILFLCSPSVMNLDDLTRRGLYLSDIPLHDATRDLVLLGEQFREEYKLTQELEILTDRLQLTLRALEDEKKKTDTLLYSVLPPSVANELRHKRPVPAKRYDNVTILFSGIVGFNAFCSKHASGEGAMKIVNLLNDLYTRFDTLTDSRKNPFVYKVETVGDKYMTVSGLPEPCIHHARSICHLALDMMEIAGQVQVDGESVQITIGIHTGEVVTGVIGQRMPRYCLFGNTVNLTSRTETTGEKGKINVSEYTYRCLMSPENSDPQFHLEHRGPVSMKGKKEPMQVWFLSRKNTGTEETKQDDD
T1 sequence (Q02108 whole entry): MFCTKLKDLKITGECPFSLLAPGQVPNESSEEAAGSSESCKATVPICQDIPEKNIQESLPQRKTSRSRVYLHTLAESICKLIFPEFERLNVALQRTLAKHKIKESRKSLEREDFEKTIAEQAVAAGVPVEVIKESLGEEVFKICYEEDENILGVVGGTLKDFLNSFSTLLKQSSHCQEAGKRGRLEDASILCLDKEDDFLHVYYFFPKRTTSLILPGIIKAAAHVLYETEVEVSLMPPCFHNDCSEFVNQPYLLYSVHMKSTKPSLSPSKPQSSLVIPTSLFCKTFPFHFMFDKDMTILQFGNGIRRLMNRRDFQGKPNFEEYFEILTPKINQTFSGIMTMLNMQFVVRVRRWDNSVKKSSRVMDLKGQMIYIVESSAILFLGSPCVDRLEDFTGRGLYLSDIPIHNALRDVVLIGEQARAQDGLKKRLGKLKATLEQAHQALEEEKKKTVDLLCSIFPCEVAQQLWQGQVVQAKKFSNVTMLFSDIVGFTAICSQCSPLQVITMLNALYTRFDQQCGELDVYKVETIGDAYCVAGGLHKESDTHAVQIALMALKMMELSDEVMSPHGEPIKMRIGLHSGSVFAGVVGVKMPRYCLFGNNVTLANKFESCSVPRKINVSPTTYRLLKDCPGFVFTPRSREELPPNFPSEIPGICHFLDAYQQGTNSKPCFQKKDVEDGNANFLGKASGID

SMILES | EC50 [µM]
O=C(Nc1ccnc(-c2cc(-c3ccon3)n(Cc3ccccc3F)n2)n1)c1cocn1 [Compound I-557] | > 1

same assay, conditions: read-out: Absolute EC50 (uM) - binned

SMILES | EC50 [µM]
CC(C)C[C@H](Nc1nc(-c2cc(-c3ccon3)n(Cc3ccccc3F)n2)ncc1F)C(=O)O [Compound I-88] | 0.101 to 1
O=C(O)[C@@H]1CCCC[C@H]1Nc1nc(-c2cc(-c3ccon3)n(Cc3ccccc3F)n2)ncc1F [Compound I-198] | < 0.1
CC(=O)c1cc(-c2ncc(F)c(NC(CO)CO)n2)nn1Cc1ccccc1F [Compound I-462] | > 1
C[C@H](O)C(=O)Nc1ccnc(-c2cc(-c3ccon3)n(Cc3ccccc3F)n2)n1 [Compound I-576] | 0.101 to 1
O=C(O)C12CC1CN(c1nc(-c3cc(-c4ccon4)n(Cc4ccccc4F)n3)ncc1F)C2 (centres unmarked) [Compound I-312] | 0.101 to 1
O=C(O)C(O)(CNc1nc(-c2cc(-c3ccon3)n(Cc3ccccc3F)n2)ncc1F)C(F)(F)F (centres unmarked) [Compound I-467] | > 1
CS(=O)(=O)CCC(Nc1nc(-c2cc(-c3ccon3)n(CCC(F)(F)F)n2)ncc1F)C(F)(F)F (centres unmarked) [Compound I-626] | > 1
CN(c1nc(-c2cc(-c3ccon3)n(Cc3ccccc3F)n2)ncc1F)S(C)(=O)=O [Compound I-629] | > 1
O=C(O)[C@H]1[C@@H](c2ccccc2)CCCN1c1nc(-c2cc(-c3ccon3)n(Cc3ccccc3F)n2)ncc1F [Compound I-319] | < 0.1
CC(C)NC(=O)NCC(=O)Nc1ccnc(-c2cc(-c3ccon3)n(Cc3ccccc3F)n2)n1 [Compound I-585] | 0.101 to 1
O=C1Nc2nc(-c3cc(-c4ccon4)n(Cc4ccccc4F)n3)ncc2OC1(C(F)(F)F)C(F)(F)F [Compound I-492] | 0.101 to 1
O=C(O)C1(c2ccc(Nc3nc(-c4cc(-c5ccon5)n(Cc5ccccc5F)n4)ncc3F)cc2)CC1 [Compound I-360] | < 0.1
CNC(=O)C(C)(O)CN(C)c1nc(-c2cc(-c3ccon3)n(Cc3ccccc3F)n2)ncc1F (centres unmarked) [Compound I-382] | < 0.1
Cc1cc(-c2ncc(F)c(N(C)CC3(C(=O)O)CC3)n2)nn1Cc1ccccc1F [Compound I-411] | 0.101 to 1
NC(=O)C(O)(CNc1ccnc(-c2cc(-c3ccon3)n(Cc3ccccc3F)n2)n1)C(F)(F)F (centres unmarked) [Compound I-627] | 0.101 to 1
COC(=O)Nc1nc(-c2cc(-c3ccon3)n(Cc3ccccc3F)n2)ncc1[N+](=O)[O-] [Compound I-541] | > 1
O=c1[nH]nc(CNc2nc(-c3cc(-c4ccon4)n(Cc4ccccc4F)n3)ncc2F)[nH]1 [Compound I-441] | 0.101 to 1
O=C(O)[C@H]1[C@H]2CC[C@H](C2)[C@H]1Nc1nc(-c2cc(-c3ccon3)n(Cc3ccccc3F)n2)ncc1F (racemic) [Compound I-379] | < 0.1
CN(CC(O)(C(F)(F)F)C(F)(F)F)c1nc(-c2cc(-c3ccon3)n(Cc3ccccc3F)n2)ncc1F [Compound I-529] | > 1
O=C(Nc1ccnc(-c2cc(-c3ccon3)n(Cc3ccccc3F)n2)n1)[C@H](O)C(F)(F)F [Compound I-326] | 0.101 to 1
O=C(Nc1ccnc(-c2cc(-c3ccon3)n(Cc3ccccc3F)n2)n1)c1ccccc1O [Compound I-577] | 0.101 to 1
O=C1C=C(O)CN(c2nc(-c3cc(-c4ccon4)n(Cc4ccccc4F)n3)ncc2F)C1 [Compound I-433] | > 1

SMILES | EC50 [µM]
O=S(=O)(Nc1nc(-c2cc(-c3ccon3)n(Cc3ccccc3F)n2)ncc1F)c1ccc(F)cc1 [Compound I-624] | 0.101 to 1
NC(=O)[C@@](O)(CNc1nc(-c2cc(-c3ccon3)n(Cc3ccccc3F)n2)ncc1F)C(F)(F)F [Compound I-530] | 0.101 to 1
CC1(S(C)(=O)=O)CCN(c2nc(-c3cc(-c4ccon4)n(Cc4ccccc4F)n3)ncc2F)C1=O (centres unmarked) [Compound I-526] | > 1
NS(=O)(=O)CCCC(=O)Nc1ccnc(-c2cc(-c3ccon3)n(Cc3ccccc3F)n2)n1 [Compound I-486] | > 1
O=S(=O)(NCCNc1nc(-c2cc(-c3ccon3)n(Cc3ccccc3F)n2)ncc1F)C(F)(F)F [Compound I-392] | < 0.1
O=S(=O)(Nc1nc(-c2cc(-c3ccon3)n(Cc3ccccc3F)n2)ncc1F)c1cccnc1 [Compound I-625] | > 1
Cc1cc(-c2ncc(F)c(NC(CO)CO)n2)nn1Cc1ccccc1F [Compound I-413] | > 1
CC(CCO)(C(=O)Nc1nc(-c2cc(-c3ccon3)n(Cc3ccccc3F)n2)ncc1F)S(C)(=O)=O (centres unmarked) [Compound I-527] | 0.101 to 1
CS(=O)(=O)C1(CNc2nc(-c3cc(-c4ccon4)n(Cc4ccccc4F)n3)ncc2F)CC1 [Compound I-545] | < 0.1
Oc1c(F)cc(CNc2nc(-c3cc(-c4ccon4)n(Cc4ccccc4F)n3)ncc2F)cc1F [Compound I-317] | < 0.1
COC(=O)CS(=O)(=O)Nc1ccnc(-c2cc(-c3ccon3)n(Cc3ccccc3F)n2)n1 [Compound I-510] | 0.101 to 1
OC[C@@H](O)CN(CC1CC1)c1nc(-c2cc(-c3ccon3)n(Cc3ccccc3F)n2)ncc1F [Compound I-322] | < 0.1
NC(=O)C1CC(=O)N(c2nc(-c3cc(-c4ccon4)n(Cc4ccccc4F)n3)ncc2F)C1 (centres unmarked) [Compound I-590] | > 1
NC(=O)CCNc1nc(-c2cc(-c3ccon3)n(Cc3ccccc3F)n2)ncc1F [Compound I-581] | < 0.1
O=S(=O)(CCNc1nc(-c2cc(-c3ccon3)n(Cc3ccccc3F)n2)ncc1F)C(F)(F)F [Compound I-514] | < 0.1
O=C(O)[C@@H]1CN(c2nc(-c3cc(-c4ccon4)n(Cc4ccccc4F)n3)ncc2F)C[C@H]1C(F)(F)F [Compound I-424] | < 0.1
NC(=O)NCC(=O)Nc1ccnc(-c2cc(-c3ccon3)n(Cc3ccccc3F)n2)n1 [Compound I-584] | > 1
OC1(CNc2nc(-c3cc(-c4ccon4)n(Cc4ccccc4F)n3)ncc2F)CNC1 [Compound I-353] | > 1
CN(Cc1nc(C(=O)O)cs1)c1nc(-c2cc(-c3ccon3)n(Cc3ccccc3F)n2)ncc1F [Compound I-373] | 0.101 to 1
O=C(N1CC(Nc2nc(-c3cc(-c4ccon4)n(Cc4ccccc4F)n3)ncc2F)C1)C1(O)CC1 [Compound I-470] | < 0.1
CC(=O)c1cc(-c2ncc(F)c(NCC(O)(C(F)(F)F)C(F)(F)F)n2)nn1Cc1ccccc1F [Compound I-362] | 0.101 to 1
O=C(Nc1nc(-c2cc(-c3ccon3)n(Cc3ccccc3F)n2)ncc1F)C1(C(F)(F)F)CC1 [Compound I-415] | > 1

SMILES | EC50 [µM]
OCC(CC(F)F)Nc1nc(-c2cc(-c3ccon3)n(Cc3ccccc3F)n2)ncc1F (centres unmarked) [Compound I-399] | < 0.1
CC(=O)OCC(=O)Nc1nc(-c2cc(-c3ccon3)n(Cc3ccccc3F)n2)ncc1F [Compound I-498] | 0.101 to 1
N#CC1(C(=O)Nc2ccnc(-c3cc(-c4ccon4)n(Cc4ccccc4F)n3)n2)CC1 [Compound I-551] | > 1
C[C@H]1CCCN(c2nc(-c3cc(-c4ccon4)n(Cc4ccccc4F)n3)ncc2F)[C@H]1C(=O)NS(=O)(=O)C1CC1 [Compound I-331] | 0.101 to 1
O=C1CC(C(=O)Nc2ccnc(-c3cc(-c4ccon4)n(Cc4ccccc4F)n3)n2)CN1 (centres unmarked) [Compound I-464] | 0.101 to 1
CC(=O)c1cc(-c2ncc(F)c(N3CCC[C@H](C)[C@@H]3C(=O)O)n2)nn1Cc1ccccc1F [Compound I-463] | 0.101 to 1
Cc1ccc(S(=O)(=O)NC(C)C(=O)Nc2ccnc(-c3cc(-c4ccon4)n(Cc4ccccc4F)n3)n2)cc1 (centres unmarked) [Compound I-548] | > 1
O=C(Nc1nc(-c2cc(-c3ccon3)n(Cc3ccccc3F)n2)ncc1F)N1CCOCC1 [Compound I-477] | > 1
CC(C)(O)CNc1nc(-c2cc(-c3ccon3)n(Cc3ccccc3F)n2)ncc1F [Compound I-325] | < 0.1
CC(=O)O[C@@H](C(=O)Nc1ccnc(-c2cc(-c3ccon3)n(Cc3ccccc3F)n2)n1)C(F)(F)F [Compound I-475] | 0.101 to 1
O=S1(=O)CCCN1c1nc(-c2cc(-c3ccon3)n(Cc3ccccc3F)n2)ncc1F [Compound I-503] | 0.101 to 1
O=C(Nc1nc(-c2cc(-c3ccon3)n(Cc3ccccc3F)n2)ncc1F)C(F)(F)F [Compound I-465] | 0.101 to 1
NC(=O)[C@H](CO)Nc1nc(-c2cc(-c3ccon3)n(Cc3ccccc3F)n2)ncc1F [Compound I-335] | 0.101 to 1
OCC1(O)CCN(c2nc(-c3cc(-c4ccon4)n(Cc4ccccc4F)n3)ncc2F)CC1 [Compound I-434] | < 0.1
NC(=O)C1(CNc2nc(-c3cc(-c4ccon4)n(Cc4ccccc4F)n3)ncc2F)CC1 [Compound I-515] | < 0.1
Oc1nc(-c2cc(-c3ccon3)n(CCC(F)(F)F)n2)ncc1F [Compound I-507] | > 1
NC(=O)CC(Nc1nc(-c2cc(-c3ccon3)n(Cc3ccccc3F)n2)ncc1F)C(F)(F)F (centres unmarked) [Compound I-419] | > 1
COc1ccc(S(=O)(=O)Nc2nc(-c3cc(-c4ccon4)n(Cc4ccccc4F)n3)ncc2F)cc1OC [Compound I-614] | 0.101 to 1
O=C(CN1C(=O)c2ccccc2C1=O)NCC(=O)Nc1ccnc(-c2cc(-c3ccon3)n(Cc3ccccc3F)n2)n1 [Compound I-602] | > 1
O=C(NC1CC1)C(Nc1nc(-c2cc(-c3ccon3)n(Cc3ccccc3F)n2)ncc1F)C(F)(F)F (centres unmarked) [Compound I-493] | 0.101 to 1
OCC(O)(CCl)CNc1nc(-c2cc(-c3ccon3)n(Cc3ccccc3F)n2)ncc1F (centres unmarked) [Compound I-352] | < 0.1
COC(=O)Nc1c(N)nc(-c2cc(-c3ccon3)n(Cc3ccccc3F)n2)nc1N [Compound I-620] | > 1

biological target: T1, soluble guanylate cyclase (sGC); assay: sGC-HEK-cGMP assay with SNP incubation, LC/MS detection (Example 2A); assay type: cell-based; conditions: HEK293 cells, 10 μM SNP, LC/MS detection; 100% = BAY 41-2272 at 10 μM; read-out: HEK assay Emax - unconstrained (%)
Outline: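 HEK293 cells with endogenous sGC were pretreated 15 min at 37 °C with 0.5 mM IBMX, then exposed 10 min at 37 °C to compound (added from 0.0001–30 μM solutions) plus SNP (from 10 μM solution). After 0.1 M HCl lysis, cGMP was quantified by LC/MS against a standard curve.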

SMILES | Emax [%]
CC(C)C[C@H](Nc1nc(-c2cc(-c3ccon3)n(Cc3ccccc3F)n2)ncc1F)C(=O)O [Compound I-88] | 60 to 80
O=C(O)[C@@H]1CCCC[C@H]1Nc1nc(-c2cc(-c3ccon3)n(Cc3ccccc3F)n2)ncc1F [Compound I-198] | 40 to 60

same assay, conditions: HEK293 cells, 10 μM SNP, LC/MS detection; top of curve not fitted to 100%; read-out: HEK assay EC50 - unconstrained

SMILES | EC50 [nM]
CC(C)C[C@H](Nc1nc(-c2cc(-c3ccon3)n(Cc3ccccc3F)n2)ncc1F)C(=O)O [Compound I-88] | 1000 to 5000
O=C(O)[C@@H]1CCCC[C@H]1Nc1nc(-c2cc(-c3ccon3)n(Cc3ccccc3F)n2)ncc1F [Compound I-198] | 1 to 100
